Results reported in PMC11790914, “Chemogenomics for steroid hormone receptors (NR3)” (Communications Chemistry, 2025).
Several values for one entry are separate records, joined by “and”; a condition that tells them apart may be missing. Identical values can stand only once.

Tests used:
HEK293T cells [1] = experiment: Cytotoxicity: necrosis induction (red fluorescent dye for permeable plasma membranes); assay type: cell-based; settings: 1 µM, 24 h, necrotic cell count normalized to 0.1% DMSO, single replicates;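 note: compounds applied in DMEM high glucose with 0.1% FCS and 0.1% DMSO, necrotic HEK293T cells counted by red staining of cells whose plasma membranes had become permeable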
ABL1 = target: T1, ABL1 (Homo sapiens, UniProt P00519); experiment: Liability panel screening by DSF: ABL1; assay type: binding; settings: DSF, 20 µM, n=2; read-out: Mean ΔTM ABL1
T1 construct: made in house
Description: (§1) Reference ligands are listed in the methods section.
(§2) In-house produced recombinantly expressed proteins[62] of the liability panel targets were diluted in a buffer containing 10 mM HEPES (pH 7.5) and 500 mM NaCl to a concentration of 2 µM. SYPRO Orange (Invitrogen, Carlsbad, California, USA; #S6650) as a fluorescence probe was added at a 1:1000 dilution to the proteins. […] Temperature-dependent unfolding profiles were measured on a QuantStudio™ 5 real-time PCR machine (Thermo Fisher Scientific, Waltham, Massachusetts, USA; #A28140). […] The temperature was increased 3 °C per minute to a maximum temperature of 85 °C. Experiments were run as technical duplicates. […] Data were analyzed with the internal Thermal Shift Software (version 1.4, Thermo Fisher Scientific) using the Boltzmann equitation to determine the inflection point of the transition curve. Differences in melting temperature are given as ∆Tm in K. […]
(§3) scanning fluorimetry (DSF).
(§4) a concentration of 20 µM.

AURKA = target: T2, AURKA (Homo sapiens, UniProt O14965); experiment: Liability panel screening by DSF: AURKA; assay type: binding; settings: DSF, 20 µM, n=2; read-out: Mean ΔTM AURKA
T2 construct: made in house
T2 sequence (O14965 1-403): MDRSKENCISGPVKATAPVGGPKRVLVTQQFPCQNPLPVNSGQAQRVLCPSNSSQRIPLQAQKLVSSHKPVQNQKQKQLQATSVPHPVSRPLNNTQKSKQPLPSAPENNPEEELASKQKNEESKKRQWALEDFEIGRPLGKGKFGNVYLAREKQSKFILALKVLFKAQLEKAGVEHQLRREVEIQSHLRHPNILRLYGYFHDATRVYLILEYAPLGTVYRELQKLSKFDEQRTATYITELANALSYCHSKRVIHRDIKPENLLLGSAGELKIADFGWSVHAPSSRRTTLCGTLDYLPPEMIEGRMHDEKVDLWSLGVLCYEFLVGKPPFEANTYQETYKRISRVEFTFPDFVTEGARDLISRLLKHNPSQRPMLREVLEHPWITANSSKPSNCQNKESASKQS
Description: as §1, §2, §3, §4

CDK2 = target: T3, CDK2 (Homo sapiens, UniProt P24941); experiment: Liability panel screening by DSF: CDK2; assay type: binding; settings: DSF, 20 µM, n=2; read-out: Mean ΔTM CDK2
T3 construct: made in house
Description: as §1, §2, §3, §4

FGFR3 = target: T4, FGFR3 (Homo sapiens, UniProt P22607); experiment: Liability panel screening by DSF: FGFR3; assay type: binding; settings: DSF, 20 µM, n=2; read-out: Mean ΔTM FGFR3
T4 construct: made in house
Description: as §1, §2, §3, §4

GSK3B = target: T5, GSK3B (Homo sapiens, UniProt P49841); experiment: Liability panel screening by DSF: GSK3B; assay type: binding; settings: DSF, 20 µM, n=2; read-out: Mean ΔTM GSK3B
T5 construct: made in house

BRD4 = target: T6, BRD4 (Homo sapiens, UniProt O60885); experiment: Liability panel screening by DSF: BRD4; assay type: binding; settings: DSF, 20 µM, n=2; read-out: Mean ΔTM BRD4
T6 construct: This panel comprised ten highly ligandable kinases and bromodomains; made in house
Description: as §1, §2, §3, §4

BRPF1 = target: T7, BRPF1 (Homo sapiens, UniProt P55201); experiment: Liability panel screening by DSF: BRPF1; assay type: binding; settings: DSF, 20 µM, n=2; read-out: Mean ΔTM BRPF1
T7 construct: This panel comprised ten highly ligandable kinases and bromodomains; made in house
T7 sequence (P55201 628-732 limits assumed): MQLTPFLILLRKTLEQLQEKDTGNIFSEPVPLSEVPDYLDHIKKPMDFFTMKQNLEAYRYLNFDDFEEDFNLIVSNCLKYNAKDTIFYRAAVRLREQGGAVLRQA
Description: as §1, §2, §3, §4

CSNK1D = target: T8, CSNK1D (Homo sapiens, UniProt P48730); experiment: Liability panel screening by DSF: CSNK1D; assay type: binding; settings: DSF, 20 µM, n=2; read-out: Mean ΔTM CSNK1D
T8 construct: made in house
Description: as §1, §2, §3, §4

MAPK1 = target: T9, MAPK1 (Homo sapiens, UniProt P28482); experiment: Liability panel screening by DSF: MAPK1; assay type: binding; settings: DSF, 20 µM, n=2; read-out: Mean ΔTM MAPK1
T9 construct: made in house
Description: as §1, §2, §3, §4

TRIM24 = target: T10, TRIM24 (Homo sapiens, UniProt O15164); experiment: Liability panel screening by DSF: TRIM24; assay type: binding; settings: DSF, 20 µM, n=2; read-out: Mean ΔTM TRIM24
T10 construct: This panel comprised ten highly ligandable kinases and bromodomains; made in house
T10 sequence (O15164 899-1004 limits assumed): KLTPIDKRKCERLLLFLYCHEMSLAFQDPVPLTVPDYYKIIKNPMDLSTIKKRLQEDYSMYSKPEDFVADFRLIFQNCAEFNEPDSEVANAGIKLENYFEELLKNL
Description: as §1, §2, §3, §4

[2] = test system: NF-κB activity in HEK293 NF-κB reporter cells; experiment: NF-kB activity assay (GFP reporter, ionomycin/PMA); assay type: cell-based; settings: n=3
Summary of the method: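 Reporter readout: GFP-expressing cells normalized to confluence, imaged every 90 min across 24 h after ionomycin (100 ng/mL)/PMA (10 ng/mL) stimulation of HEK293 cells pre-treated 4 h with compound (0.1% DMSO); triplicate independent experiments.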

[3] = test system: ATF6 activity in Hela ATF6 reporter cells; experiment: Endoplasmic reticulum stress assay (ATF6 Renilla luciferase reporter, tunicamycin); assay type: cell-based; settings: for activity at 1 µM: Homo sapiens, HeLa, single replicates n=1 to n=5, read-out: ER stress [rel. ATF6 activity]
Summary of the method: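 ER stress was induced by 100 ng/mL tunicamycin added 4 h after compound (0.1% DMSO) to HeLa ATF6 reporter cells. After 18 h more, Renilla luciferase signal was read and expressed relative to DMSO control, n=5 biological replicates.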

HEK293T cells [4] = experiment: Cytotoxicity: metabolic activity (WST-8 / CCK-8 assay); settings: 1 µM; HEK293T, 24 h; WST-8; normalized to 0.1% DMSO; single replicates
HEK293T cells [5] = experiment: Cytotoxicity: growth-rate (change in confluence over 24 h); settings: 1 µM, normalized to 0.1% DMSO control, single replicates (n=1...)
HEK293T cells [6] = experiment: Cytotoxicity: apoptosis induction (caspase-3/7 DEVD fluorogenic DNA dye); settings: 1 µM; HEK293T, 24 h; apoptotic cell count normalized to 0.1% DMSO; single replicates
Description: Cells were incubated with the test compounds at the indicated concentrations solubilized with 0.1% DMSO for 24 h. Growth-rate was determined based on the change in confluence over 24 h normalized to the change in confluence of cells treated with the 0.1% DMSO control (n = 10). Metabolic activity was determined with a water-soluble tetrazolium-8 (WST-8) assay (n = 8) after 24 h treatment. Apoptotic cells were detected with a fluorogenic DNA dye coupled to the caspase-3/7 recognition sequence (DEVD) after 24 h treatment and the apoptotic cell count was normalized to 0.1% DMSO treated cells (n = 6).
HEK293T cells (German Collection of Microorganisms and Cell Culture GmbH, DSMZ; #ACC305) were cultured in DMEM high glucose, supplemented with 10% fetal calf serum (FCS), sodium pyruvate (1 mM), penicillin (100 µ/mL) and streptomycin (100 µg/mL) at 37 °C and 5% (v/v) CO2, and seeded in pre-coated (10 µg/mL collagen G solution (Merck KgaA; #L7213) for 30 min at 37 °C) 96-well plates (2 × 10^5 cells per well). After 24 h, the cells were treated with the respective NR3 CG compound candidate at the recommended concentration, bexarotene (100 µM) or doxorubicin (30 µM) as positive controls in DMEM high glucose supplemented with 0.1% FCS, penicillin (100 µ/mL), streptomycin (100 µg/mL) and 0.1% DMSO, or 0.1% DMSO alone as an untreated control. Each sample was prepared in at least four biologically independent replicates. […] Thereafter, the medium was aspirated and the cells were incubated for 3 h with 90 µL DMEM high glucose supplemented with 0.2% FCS, penicillin (100 µ/mL) and streptomycin (100 µg/mL) and additionally containing 10 µL Cell Counting Kit 8 solution (CCK-8; MedChemExpress, Monmouth Junction, New York, USA; #HY-K0301), and absorbance was measured at 1 h, 2 h and 3 h of incubation at 450 nm on a Tecan Spark Cyto to assess metabolic activity of the cells. Before drug administration, after the first medium exchange, 24 h after drug administration, and after fluorescence imaging cell confluence was assessed using the Tecan Spark Cyto, to account for changes in cell confluence due to drug administration and cell handling. Compound effects on cell confluence, apoptosis, metabolic activity and necrosis were normalized to the vehicle control of each biological replicate individually.

T5 sequence (P49841 whole entry, species assumed): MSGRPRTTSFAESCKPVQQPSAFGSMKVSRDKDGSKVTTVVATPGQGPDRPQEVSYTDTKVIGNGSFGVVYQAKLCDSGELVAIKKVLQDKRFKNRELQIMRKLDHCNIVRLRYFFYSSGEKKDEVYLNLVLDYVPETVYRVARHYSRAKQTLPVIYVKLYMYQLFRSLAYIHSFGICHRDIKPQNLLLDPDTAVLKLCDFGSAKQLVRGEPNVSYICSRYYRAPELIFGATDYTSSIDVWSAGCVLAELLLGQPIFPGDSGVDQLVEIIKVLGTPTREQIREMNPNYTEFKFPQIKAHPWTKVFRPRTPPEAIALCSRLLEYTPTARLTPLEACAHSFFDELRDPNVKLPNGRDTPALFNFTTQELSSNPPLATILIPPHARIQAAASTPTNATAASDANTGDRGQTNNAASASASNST
T4 sequence (P22607 23-806, species assumed): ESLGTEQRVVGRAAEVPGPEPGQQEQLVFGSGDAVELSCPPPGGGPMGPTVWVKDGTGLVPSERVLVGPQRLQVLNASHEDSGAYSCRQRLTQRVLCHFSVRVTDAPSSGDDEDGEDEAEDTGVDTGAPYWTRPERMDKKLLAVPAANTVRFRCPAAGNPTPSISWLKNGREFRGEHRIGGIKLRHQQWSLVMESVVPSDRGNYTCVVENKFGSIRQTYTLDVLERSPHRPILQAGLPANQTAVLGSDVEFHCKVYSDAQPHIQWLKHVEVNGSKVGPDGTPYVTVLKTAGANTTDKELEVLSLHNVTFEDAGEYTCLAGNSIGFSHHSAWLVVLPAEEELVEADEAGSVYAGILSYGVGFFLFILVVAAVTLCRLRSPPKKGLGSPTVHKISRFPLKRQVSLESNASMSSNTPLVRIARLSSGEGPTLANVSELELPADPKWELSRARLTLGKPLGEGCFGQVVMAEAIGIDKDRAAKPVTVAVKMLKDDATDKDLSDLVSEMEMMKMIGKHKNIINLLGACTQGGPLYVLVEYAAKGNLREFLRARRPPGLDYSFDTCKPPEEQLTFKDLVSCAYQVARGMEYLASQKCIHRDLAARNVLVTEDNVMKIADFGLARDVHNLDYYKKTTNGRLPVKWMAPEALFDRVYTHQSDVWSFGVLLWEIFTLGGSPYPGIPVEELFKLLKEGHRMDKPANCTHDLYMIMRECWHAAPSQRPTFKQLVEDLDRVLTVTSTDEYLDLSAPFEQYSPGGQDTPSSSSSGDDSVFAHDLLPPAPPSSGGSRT
T1 sequence (P00519 whole entry, species assumed): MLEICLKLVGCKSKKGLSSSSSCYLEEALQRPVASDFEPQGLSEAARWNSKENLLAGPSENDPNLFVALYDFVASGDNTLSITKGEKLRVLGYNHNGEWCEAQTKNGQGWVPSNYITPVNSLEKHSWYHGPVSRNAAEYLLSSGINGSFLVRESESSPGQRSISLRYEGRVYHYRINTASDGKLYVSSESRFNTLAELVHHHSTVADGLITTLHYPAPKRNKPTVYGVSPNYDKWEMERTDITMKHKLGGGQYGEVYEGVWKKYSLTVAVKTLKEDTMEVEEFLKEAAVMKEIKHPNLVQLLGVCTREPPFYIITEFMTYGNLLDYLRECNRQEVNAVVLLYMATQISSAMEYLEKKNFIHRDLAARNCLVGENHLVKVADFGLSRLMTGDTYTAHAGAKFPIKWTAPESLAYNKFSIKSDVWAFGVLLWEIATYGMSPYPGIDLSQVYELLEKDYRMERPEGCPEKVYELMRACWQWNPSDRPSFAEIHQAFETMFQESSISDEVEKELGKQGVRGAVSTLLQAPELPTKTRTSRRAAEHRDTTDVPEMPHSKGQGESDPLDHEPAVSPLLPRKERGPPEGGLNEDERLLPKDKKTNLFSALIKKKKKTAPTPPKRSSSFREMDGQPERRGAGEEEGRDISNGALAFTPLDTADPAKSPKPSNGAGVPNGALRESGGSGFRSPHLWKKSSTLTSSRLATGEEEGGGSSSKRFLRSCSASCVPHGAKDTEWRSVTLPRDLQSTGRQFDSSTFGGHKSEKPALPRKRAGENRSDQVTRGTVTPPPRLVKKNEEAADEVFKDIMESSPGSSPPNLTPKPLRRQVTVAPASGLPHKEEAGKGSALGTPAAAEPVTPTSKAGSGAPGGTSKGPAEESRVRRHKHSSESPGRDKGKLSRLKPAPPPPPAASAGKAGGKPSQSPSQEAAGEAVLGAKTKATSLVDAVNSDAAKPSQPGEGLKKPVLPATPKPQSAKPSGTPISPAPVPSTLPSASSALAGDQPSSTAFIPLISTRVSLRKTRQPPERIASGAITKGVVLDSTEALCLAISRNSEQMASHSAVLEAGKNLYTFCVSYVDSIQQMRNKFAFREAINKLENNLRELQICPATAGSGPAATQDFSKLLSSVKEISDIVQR
T9 sequence (P28482 whole entry, species assumed): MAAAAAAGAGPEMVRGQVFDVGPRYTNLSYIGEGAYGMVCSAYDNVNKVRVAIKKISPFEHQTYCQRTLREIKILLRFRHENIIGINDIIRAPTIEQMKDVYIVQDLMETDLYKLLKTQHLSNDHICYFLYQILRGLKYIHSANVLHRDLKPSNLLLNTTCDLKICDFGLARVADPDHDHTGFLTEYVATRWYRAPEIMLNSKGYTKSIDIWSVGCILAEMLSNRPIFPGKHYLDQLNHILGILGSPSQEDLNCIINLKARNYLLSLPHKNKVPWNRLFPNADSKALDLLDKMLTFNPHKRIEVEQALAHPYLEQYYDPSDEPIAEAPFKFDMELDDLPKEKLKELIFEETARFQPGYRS
T8 sequence (P48730 whole entry, species assumed): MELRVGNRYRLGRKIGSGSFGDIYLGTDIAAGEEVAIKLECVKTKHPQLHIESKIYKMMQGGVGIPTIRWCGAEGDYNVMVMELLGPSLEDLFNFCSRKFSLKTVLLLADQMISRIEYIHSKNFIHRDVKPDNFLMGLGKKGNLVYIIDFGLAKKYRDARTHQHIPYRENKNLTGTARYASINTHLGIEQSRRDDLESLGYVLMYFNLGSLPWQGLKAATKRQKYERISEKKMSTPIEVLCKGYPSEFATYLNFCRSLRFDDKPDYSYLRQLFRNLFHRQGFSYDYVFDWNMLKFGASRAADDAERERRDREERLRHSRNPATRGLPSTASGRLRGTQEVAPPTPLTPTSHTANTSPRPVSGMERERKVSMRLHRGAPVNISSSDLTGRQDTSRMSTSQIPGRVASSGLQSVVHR

SMILES	Necrosis induction [NI] (HEK293T cells [1])	ΔTm at 20 µM (ABL1) [°C]	ΔTm at 20 µM (AURKA) [°C]	ΔTm at 20 µM (CDK2) [°C]	ΔTm at 20 µM (FGFR3) [°C]	ΔTm at 20 µM (GSK3B) [°C]	ΔTm at 20 µM (BRD4) [°C]	ΔTm at 20 µM (BRPF1) [°C]	ΔTm at 20 µM (CSNK1D) [°C]	ΔTm at 20 µM (MAPK1) [°C]	ΔTm at 20 µM (TRIM24) [°C]	Mean NFκB response ([2]; 1 µM, 1,5 h)	Mean NFκB response ([2]; 1 µM, 4,5 h)	Mean NFκB response ([2]; 1 µM, 7,5 h)	Mean NFκB response ([2]; 1 µM, 10,5 h)	Mean NFκB response ([2]; 1 µM, 13,5 h)	Mean NFκB response ([2]; 1 µM, 16,6 h)	Mean NFκB response ([2]; 1 µM, 19,5 h)	Mean NFκB response ([2]; 1 µM, 22,5 h)	Mean NFκB response ([2]; 1 µM, 3 h)	other results
O=C(/C=C/c1ccc(O)cc1)c1ccc(O)cc1O [Isoliquiritigenin]	0.85 and 0.80 and 0.45 and 1.05	6.6	1.81	1.64	1.26	2.87	1.51	0.82	1.31	1.33	-0.0317	3578.42 GFP+-cells/confluence ∙ 1000	4286.96 GFP+-cells/confluence ∙ 1000	9277.37 GFP+-cells/confluence ∙ 1000	19586.05 GFP+-cells/confluence ∙ 1000	28313.33 GFP+-cells/confluence ∙ 1000	34970.00 GFP+-cells/confluence ∙ 1000	39776.67 GFP+-cells/confluence ∙ 1000	43150.00 GFP+-cells/confluence ∙ 1000	3834.99 GFP+-cells/confluence ∙ 1000	Mean NFκB response ([2]; 1 µM, 6 h): 5800.94 GFP+-cells/confluence ∙ 1000; Mean NFκB response ([2]; 1 µM, 9 h): 14742.34 GFP+-cells/confluence ∙ 1000; Mean NFκB response ([2]; 1 µM, 12 h): 24113.33 GFP+-cells/confluence ∙ 1000; Mean NFκB response ([2]; 1 µM, 15 h): 32050.00 GFP+-cells/confluence ∙ 1000; Mean NFκB response ([2]; 1 µM, 18 h): 37423.33 GFP+-cells/confluence ∙ 1000; Mean NFκB response ([2]; 1 µM, 21 h): 41230.00 GFP+-cells/confluence ∙ 1000; Mean NFκB response ([2]; 1 µM, 24 h): 44476.67 GFP+-cells/confluence ∙ 1000; activity at 1 µM [3]: 96%; Metabolic activity [MA] (HEK293T cells [4]): 1.06 and 1.13 and 1.02 (2×) and 1.07 and 1.01 and 1.10 and 1.11; Growth rate [GR] (HEK293T cells [5]): 0.68 and 1.38 and 0.82 and 1.00 and 0.76 and 0.96 and 1.05 and 0.37 and 0.91 and 1.86; Apoptosis induction [AI] (HEK293T cells [6]): 0.29 and 1.26 and 0.88 and 1.02 and 0.64 and 1.54
Oc1ccc(-c2nc3cc(O)cc(Br)c3o2)cc1 [WAY200070]	0.70 and 0.57 and 0.78 and 0.74	2.05	0.19	1.93	1.16	3.58	0.55	2.12	2.57	-0.9	0.24	2392.96 GFP+-cells/confluence ∙ 1000	3166.63 GFP+-cells/confluence ∙ 1000	7710.70 GFP+-cells/confluence ∙ 1000	19182.75 GFP+-cells/confluence ∙ 1000	27828.42 GFP+-cells/confluence ∙ 1000	34347.41 GFP+-cells/confluence ∙ 1000	38770.94 GFP+-cells/confluence ∙ 1000	41785.25 GFP+-cells/confluence ∙ 1000	2570.72 GFP+-cells/confluence ∙ 1000	Mean NFκB response ([2]; 1 µM, 6 h): 4284.26 GFP+-cells/confluence ∙ 1000; Mean NFκB response ([2]; 1 µM, 9 h): 13724.58 GFP+-cells/confluence ∙ 1000; Mean NFκB response ([2]; 1 µM, 12 h): 23519.76 GFP+-cells/confluence ∙ 1000; Mean NFκB response ([2]; 1 µM, 15 h): 31227.07 GFP+-cells/confluence ∙ 1000; Mean NFκB response ([2]; 1 µM, 18 h): 36753.27 GFP+-cells/confluence ∙ 1000; Mean NFκB response ([2]; 1 µM, 21 h): 40136.06 GFP+-cells/confluence ∙ 1000; Mean NFκB response ([2]; 1 µM, 24 h): 43256.26 GFP+-cells/confluence ∙ 1000; ATF6 activity (tunicamycin-induced endoplasmic reticulum stress) ([3]; Hela ATF6 reporter cells, tunicamycin 100 ng/mL, 18 h, compounds at recommended concentrations, n = 5): failed to reduce ATF6 activity; activity at 1 µM [3]: 92%; Metabolic activity [MA] (HEK293T cells [4]): 1.01 (2×) and 0.90 and 0.92 and 0.96 and 0.97 and 1.05 and 1.00; Growth rate [GR] (HEK293T cells [5]): 0.70 and -0.18 and 0.97 and 1.02 and 1.09 and 1.00 and 1.07 and 0.46 and 0.96 and -0.95; Apoptosis induction [AI] (HEK293T cells [6]): 0.59 and 0.50 and 0.47 and 0.71 and 1.22 and 1.35
